The values that follow come from US7220770B2, “Heterocyclo-substituted imidazoles for the treatment of inflammation” (priority 1994, dated 2007).

Each structure is given as a SMILES string.

With `CS(=O)(=O)c1ccc(-n2cc(-c3ccc(OC(F)(F)F)cc3)nc2-c2ccc(Cl)cc2)cc1` [Example 10, 2-(4-Chlorophenyl)-1-[4-(methylsulfonyl)phenyl]-4-[4-(trifluoromethoxy)phenyl]-1H-imidazole], the melting point (as a rule, the temperature, or range, at which the solid turns liquid) lay in the range of 95 to 97 °C.

In turn, `CS(=O)(=O)c1ccc(-n2cc(C#N)nc2-c2ccc(Cl)cc2)cc1` [Example 174, 2-(4-Chlorophenyl)-1-[4-(methylsulfonyl)phenyl]-1H-imidazole-4-carbonitrile] returned a melting point of 205 °C.

Turning to `Cc1ccc(-c2nc(C(F)(F)F)cn2-c2ccc(S(N)(=O)=O)cc2)cn1` [Example 36, 4-[2-(6-Methylpyridin-3-yl)-4-(trifluoromethyl)-1H-imidazol-1-yl]benzenesulfonamide], the melting point turned out to be 203 °C.

`CS(=O)(=O)c1ccc(-n2cc(C(F)(F)F)nc2-c2cccs2)cc1` registered a melting point of 182 °C.

`Cc1ncccc1-c1nc(C(F)(F)F)cn1-c1ccc(S(C)(=O)=O)cc1` [Example 44, 2-Methyl-3-[1-[4-(methyloulfonyl)phenyl]-4-(trifluoromethyl)-1H-imidazol-2-yl]pyridine] returned a melting point of 160 to 161 °C.

For the molecule `Cc1cncc(-c2nc(C(F)(F)F)cn2-c2ccc(S(N)(=O)=O)cc2)c1` [Example 43, 4-[2-(5-Methylpyridin-3-yl)-4-(trifluoromethyl)-1H-imidazol-1-yl]benzenesulfonamide], the melting point was 242 to 243 °C.

The molecule `CS(=O)(=O)c1ccc(-n2cc(COc3ccc(Cl)cc3)nc2-c2ccc(Cl)cc2)cc1` [Example 15, 2-(4-Chlorophenyl)-4-[(4-chlorophenoxy)methyl]-1-[4-(methylsulfonyl)phenyl]-1H-imidazole] gave a melting point of 173 °C.

`COc1ccc(-c2cn(-c3ccc(S(C)(=O)=O)cc3)c(-c3ccc(Cl)cc3)n2)cc1` [Example 13, 2-(4-Chlorophenyl)-4-(4-methoxyphenyl)-1-[4-(methylsulfonyl)phenyl]-1H-imidazole] had a melting point of 110 to 113 °C.

In turn, `CS(=O)(=O)c1ccc(-n2cc(-c3cccc(Cl)c3)nc2-c2ccc(Cl)cc2)cc1` [Example 12, 2-(4-Chlorophenyl)-4-(3-chlorophenyl)-1-[4-(methyloulfonyl)phenyl]-1H-imidazole] gave a melting point of 156 to 159 °C.

Consider `CS(=O)(=O)c1ccc(-n2cc(COCc3ccccc3)nc2-c2ccc(Cl)cc2)cc1` [Example 178, 2-(4-Chlorophenyl)-1-[4-(methyloulfonyl)phenyl]-4-(phenylmethoxymethyl)-1H-imidazole], for which the melting point lay within 64 to 65 °C.
